From patent US10987359B2, “Oxadiazepinone derivatives and methods of treating hepatitis B infections” (priority 2016, dated 2021)
Where two headings read alike, the source gives them in different places.

System: HBV
Assay: HBV replication inhibition assay (BDNA assay) in HepG2.2.15 cells
Type: cell-based
Settings: HepG2.2.15 cells, read-out: DNA EC50
How it was run: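 Supernatant encapsidated HBV DNA was measured by bDNA after DNase digestion and proteinase K release. Stably HBV-integrated HepG2.2.15 cells had two 3-day compound exposures (0.5% DMSO). Signals were background-subtracted and normalized to DMSO wells, and EC50 was obtained by four-parameter fit.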

[1] = Hepatitis B virus, HepG2.2.15, HBV replication assay (BDNA assay)
[2] = HBV replication assay (BDNA assay)

Compound | EC50 [1] | EC50 [2]
C[C@@H]1Cc2nn3c(c2CN1C(=O)Nc1ccc(F)c(Br)c1)C(=O)N(C)OC(CN(C)C)C3 (stereo in doubt) [Compound 094_D1, (4S*,9R)—N-(3-bromo-4-fluorophenyl)-4-((dimethylamino)methyl)-2,9-dimethyl-1-oxo-1,4,5,8,9,11-hexahydropyrido[4′,3′:3,4]pyrazolo[5,1-d][1,2,5]oxadiazepine-10(2H)-carboxamide] | 1 to 100 nM | –
C[C@@H]1Cc2nn3c(c2CN1C(=O)Nc1ccc(F)c(Br)c1)C(=O)N(C)OC(CN(C)C)C3 (stereo in doubt) [Compound 094_D2, (4R*,9R)—N-(3-bromo-4-fluorophenyl)-4-((dimethylamino)methyl)-2,9-dimethyl-1-oxo-1,4,5,8,9,11-hexahydropyrido[4′,3′:3,4]pyrazolo[5,1-d][1,2,5]oxadiazepine-10(2H)-carboxamide] | – | 1 to 100 nM
C[C@@H]1Cc2nn3c(c2CN1C(=O)Nc1ccnc(Br)c1F)C(=O)N(C)OC(CN(C)C)C3 (stereo in doubt) [Compound 095_D1, (4S*,9R)—N-(2-bromo-3-fluoropyridin-4-yl)-4-((dimethylamino)methyl)-2,9-dimethyl-1-oxo-1,4,5,8,9,11-hexahydropyrido[4′,3′:3,4]pyrazolo[5,1-d][1,2,5]oxadiazepine-10(2H)-carboxamide] | 100 to 500 nM | –
C[C@@H]1Cc2nn3c(c2CN1C(=O)Nc1ccnc(Br)c1F)C(=O)N(C)OC(CN(C)C)C3 (stereo in doubt) [Compound 095_D2, (4R*,9R)—N-(2-bromo-3-fluoropyridin-4-yl)-4-((dimethylamino)methyl)-2,9-dimethyl-1-oxo-1,4,5,8,9,11-hexahydropyrido[4′,3′:3,4]pyrazolo[5,1-d][1,2,5]oxadiazepine-10(2H)-carboxamide] | – | 100 to 500 nM
C[C@@H]1Cc2nn3c(c2CN1C(=O)Nc1ccc(F)c(C#N)c1)C(=O)N(C)OC(CN(C)C)C3 (stereo in doubt) [Compound 096_D1, (4S*,9R)—N-(3-cyano-4-fluorophenyl)-4-((dimethylamino)methyl)-2,9-dimethyl-1-oxo-1,4,5,8,9,11-hexahydropyrido[4′,3′:3,4]pyrazolo[5,1-d][1,2,5]oxadiazepine-10(2H)-carboxamide] | – | 100 to 500 nM
C[C@@H]1Cc2nn3c(c2CN1C(=O)Nc1ccc(F)c(C#N)c1)C(=O)N(C)OC(CN(C)C)C3 (stereo in doubt) [Compound 096_D2, (4R*,9R)—N-(3-cyano-4-fluorophenyl)-4-((dimethylamino)methyl)-2,9-dimethyl-1-oxo-1,4,5,8,9,11-hexahydropyrido[4′,3′:3,4]pyrazolo[5,1-d][1,2,5]oxadiazepine-10(2H)-carboxamide] | – | 1 to 100 nM
Cc1cc(NC(=O)N2Cc3c(nn4c3C(=O)N(C)OC(CN(C)C)C4)C[C@H]2C)ccc1F (stereo in doubt) [Compound 097_D1, (4 S*,9R)-4-((dimethylamino)methyl)-N-(4-fluoro-3-methylphenyl)-2,9-dimethyl-1-oxo-1,4,5,8,9,11-hexahydropyrido[4′,3′:3,4]pyrazolo[5,1-d][1,2,5]oxadiazepine-10(2H)-carboxamide] | 1 to 100 nM | –
Cc1cc(NC(=O)N2Cc3c(nn4c3C(=O)N(C)OC(CN(C)C)C4)C[C@H]2C)ccc1F (stereo in doubt) [Compound 097_D2, (4R*,9R)-4-((dimethylamino)methyl)-N-(4-fluoro-3-methylphenyl)-2,9-dimethyl-1-oxo-1,4,5,8,9,11-hexahydropyrido[4′,3′:3,4]pyrazolo[5,1-d][1,2,5]oxadiazepine-10(2H)-carboxamide] | – | 1 to 100 nM
C[C@@H]1Cc2nn3c(c2CN1C(=O)Nc1ccc(F)c(C(F)(F)F)c1)C(=O)N(C)OC(CN(C)C)C3 (stereo in doubt) [Compound 098_D1, (4S*,9R)-4-((dimethylamino)methyl)-N-(4-fluoro-3-(trifluoromethyl)phenyl)-2,9-dimethyl-1-oxo-1,4,5,8,9,11-hexahydropyrido[4′,3′:3,4]pyrazolo[5,1-d][1,2,5]oxadiazepine-10(2H)-carboxamide] | 1 to 100 nM | –
C[C@@H]1Cc2nn3c(c2CN1C(=O)Nc1ccc(F)c(C(F)(F)F)c1)C(=O)N(C)OC(CN(C)C)C3 (stereo in doubt) [Compound 098_D2, (4R*,9R)-4-((dimethylamino)methyl)-N-(4-fluoro-3-(trifluoromethyl)phenyl)-2,9-dimethyl-1-oxo-1,4,5,8,9,11-hexahydropyrido[4′,3′:3,4]pyrazolo[5,1-d][1,2,5]oxadiazepine-10(2H)-carboxamide] | – | 1 to 100 nM
C[C@@H]1Cc2nn3c(c2CN1C(=O)Nc1cc(Cl)c(F)cc1F)C(=O)N(C)OC(CN(C)C)C3 (stereo in doubt) [Compound 099_D1, (4S*,9R)—N-(5-chloro-2,4-difluorophenyl)-4-((dimethylamino)methyl)-2,9-dimethyl-1-oxo-1,4,5,8,9,11-hexahydropyrido[4′,3′:3,4]pyrazolo[5,1-d][1,2,5]oxadiazepine-10(2H)-carboxamide] | 100 to 500 nM | –
C[C@@H]1Cc2nn3c(c2CN1C(=O)Nc1cc(Cl)c(F)cc1F)C(=O)N(C)OC(CN(C)C)C3 (stereo in doubt) [Compound 099_D2, (4R*,9R)—N-(5-chloro-2,4-difluorophenyl)-4-((dimethylamino)methyl)-2,9-dimethyl-1-oxo-1,4,5,8,9,11-hexahydropyrido[4′,3′:3,4]pyrazolo[5,1-d][1,2,5]oxadiazepine-10(2H)-carboxamide] | – | 100 to 500 nM
C[C@@H]1Cc2nn3c(c2CN1C(=O)Nc1cc(Br)c(F)cc1F)C(=O)N(C)OC(CN(C)C)C3 (stereo in doubt) [Compound 100_D1, (4S*,9R)—N-(5-bromo-2,4-difluorophenyl)-4-((dimethylamino)methyl)-2,9-dimethyl-1-oxo-1,4,5,8,9,11-hexahydropyrido[4′,3′:3,4]pyrazolo[5,1-d][1,2,5]oxadiazepine-10(2H)-carboxamide] | – | 100 to 500 nM
C[C@@H]1Cc2nn3c(c2CN1C(=O)Nc1cc(Br)c(F)cc1F)C(=O)N(C)OC(CN(C)C)C3 (stereo in doubt) [Compound 100_D2, (4R*,9R)—N-(5-bromo-2,4-difluorophenyl)-4-((dimethylamino)methyl)-2,9-dimethyl-1-oxo-1,4,5,8,9,11-hexahydropyrido[4′,3′:3,4]pyrazolo[5,1-d][1,2,5]oxadiazepine-10(2H)-carboxamide] | – | 1 to 100 nM
CC[C@H]1Cc2nn3c(c2CN1C(=O)Nc1ccc(F)c(Cl)c1)C(=O)N(C)O[C@H](CO)C3 (stereo in doubt) [Compound 109_D1, (4S*,9S*)—N-(3-chloro-4-fluorophenyl)-9-ethyl-4-(hydroxymethyl)-2-methyl-1-oxo-1,4,5,8,9,11-hexahydropyrido[4′,3′:3,4]pyrazolo[5,1-d][1,2,5]oxadiazepine-10(2H)-carboxamide] | 100 to 500 nM | –
CC[C@@H]1Cc2nn3c(c2CN1C(=O)Nc1ccc(F)c(Cl)c1)C(=O)N(C)O[C@H](CO)C3 (stereo in doubt) [Compound 109_D2, (4S*,9R*)—N-(3-chloro-4-fluorophenyl)-9-ethyl-4-(hydroxymethyl)-2-methyl-1-oxo-1,4,5,8,9,11-hexahydropyrido[4′,3′:3,4]pyrazolo[5,1-d][1,2,5]oxadiazepine-10(2H)-carboxamide] | 100 to 500 nM | –
CC[C@@H]1Cc2nn3c(c2CN1C(=O)Nc1ccc(F)c(Cl)c1)C(=O)N(C)O[C@@H](CO)C3 (stereo in doubt) [Compound 109_D3, (4R*,9R*)—N-(3-chloro-4-fluorophenyl)-9-ethyl-4-(hydroxymethyl)-2-methyl-1-oxo-1,4,5,8,9,11-hexahydropyrido[4′,3′:3,4]pyrazolo[5,1-d][1,2,5]oxadiazepine-10(2H)-carboxamide] | 500 to 1000 nM | –
CC[C@H]1Cc2nn3c(c2CN1C(=O)Nc1ccc(F)c(Cl)c1)C(=O)N(C)O[C@@H](CO)C3 (stereo in doubt) [Compound 109_D4, (4R*,9S*)—N-(3-chloro-4-fluorophenyl)-9-ethyl-4-(hydroxymethyl)-2-methyl-1-oxo-1,4,5,8,9,11-hexahydropyrido[4′,3′:3,4]pyrazolo[5,1-d][1,2,5]oxadiazepine-10(2H)-carboxamide] | 100 to 500 nM | –
CNC(=O)C1Cn2nc3c(c2C(=O)N(C)O1)CN(C(=O)Nc1cc(Cl)c(F)cc1F)[C@H](C)C3 (stereo in doubt) [Compound 111_D1, (4S*,9R)—N10-(5-chloro-2,4-difluorophenyl)-N4,2,9-trimethyl-1-oxo-1,4,5,8,9,11-hexahydropyrido[4′,3′:3,4]pyrazolo[5,1-d][1,2,5]oxadiazepine-4,10(2H)-dicarboxamide] | – | > 1000 nM
CNC(=O)C1Cn2nc3c(c2C(=O)N(C)O1)CN(C(=O)Nc1cc(Cl)c(F)cc1F)[C@H](C)C3 (stereo in doubt) [Compound 111_D2, (4R*,9R)—N10-(5-chloro-2,4-difluorophenyl)-N4,2,9-trimethyl-1-oxo-1,4,5,8,9,11-hexahydropyrido[4′,3′:3,4]pyrazolo[5,1-d][1,2,5]oxadiazepine-4,10(2H)-dicarboxamide] | – | 1 to 100 nM
CNC(=O)C1Cn2nc3c(c2C(=O)N(C)O1)CN(C(=O)Nc1ccc(F)c(C#N)c1)[C@H](C)C3 (stereo in doubt) [Compound 112_D1, (4S*,9R)—N10-(3-cyano-4-fluorophenyl)-N4,2,9-trimethyl-1-oxo-1,4,5,8,9,11-hexahydropyrido[4′,3′:3,4]pyrazolo[5,1-d][1,2,5]oxadiazepine-4,10(2H)-dicarboxamide] | – | > 1000 nM
CNC(=O)C1Cn2nc3c(c2C(=O)N(C)O1)CN(C(=O)Nc1ccc(F)c(C#N)c1)[C@H](C)C3 (stereo in doubt) [Compound 112_D2, (4R*,9R)—N10-(3-cyano-4-fluorophenyl)-N4,2,9-trimethyl-1-oxo-1,4,5,8,9,11-hexahydropyrido[4′,3′:3,4]pyrazolo[5,1-d][1,2,5]oxadiazepine-4,10(2H)-dicarboxamide] | – | 1 to 100 nM
